Source: ChEMBL document CHEMBL1201862, “PubChem BioAssay data set” (2004)
The source made the active and inactive calls.

Columns and labels:
CHO-K1 = assay: Counterscreen for antagonists of the orexin 1 receptor (OX1R; HCRTR1): Homogeneous time resolved fluorescence (HTRF)-based cell-based dose response assay to identify antagonists of the parental CHO-K1 cell line. [Related pubchem assays (depositor defined):AID434989, AID435008, AID463079, AID485270, AID492963, AID492964, AID492965, AID493232, AID504699, AID504701]; format: functional; settings: Cricetulus griseus;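 also: potency for inhibition of ATP-stimulated IP1 production as antagonists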
[1] = Counterscreen for antagonists of the orexin 1 receptor (OX1R; HCRTR1): Fluorescence-based cell-based high throughput dose response assay to identify antagonists of the parental CHO cell line. [Related pubchem assays (depositor defined):AID434989, AID435008, AID463079, AID485270, AID492963, AID492964, AID492965, AID493232, AID504699, AID504701]; format: functional
[2] = target: T1, Orexin/Hypocretin receptor type 1 (Homo sapiens, UniProt O43613); assay: Homogeneous Time Resolved Fluorescence (HTRF)-based cell-based high throughput dose response assay for antagonists of the orexin 1 receptor (OX1R; HCRTR1). [Related pubchem assays (depositor defined):AID434989, AID435008, AID463079, AID485270, AID492963, AID492964, AID492965, AID493232, AID504717, AID504718]; format: functional
T1 sequence (O43613 whole entry): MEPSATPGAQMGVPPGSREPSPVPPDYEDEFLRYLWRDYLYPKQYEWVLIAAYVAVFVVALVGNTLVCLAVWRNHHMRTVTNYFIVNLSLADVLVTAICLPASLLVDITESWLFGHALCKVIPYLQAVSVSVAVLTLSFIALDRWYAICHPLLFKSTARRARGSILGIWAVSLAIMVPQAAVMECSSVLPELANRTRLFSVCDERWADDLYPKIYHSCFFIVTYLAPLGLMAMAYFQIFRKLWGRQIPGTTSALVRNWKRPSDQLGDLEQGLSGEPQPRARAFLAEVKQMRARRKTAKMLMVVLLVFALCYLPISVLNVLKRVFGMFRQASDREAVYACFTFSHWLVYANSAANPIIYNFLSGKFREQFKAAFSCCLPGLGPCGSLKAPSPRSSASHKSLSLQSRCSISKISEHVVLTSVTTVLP

[3] = target: T2, Heat shock factor protein 1 (Mus musculus, UniProt P38532); assay: enhancement of HSF1-driven luciferase signal – cell-based, NIH3T3, luminescence, dose retest, confirmation (AID 435004); format: functional;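 also: stress induced by proteasome inhibitor MG132 added 30 min after compound; luciferase reporter driven by HSF1 response element in NIH3T3 cells; actives raise luminescence as potentiators of the MG132 stress response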
T2 sequence (P38532 whole entry): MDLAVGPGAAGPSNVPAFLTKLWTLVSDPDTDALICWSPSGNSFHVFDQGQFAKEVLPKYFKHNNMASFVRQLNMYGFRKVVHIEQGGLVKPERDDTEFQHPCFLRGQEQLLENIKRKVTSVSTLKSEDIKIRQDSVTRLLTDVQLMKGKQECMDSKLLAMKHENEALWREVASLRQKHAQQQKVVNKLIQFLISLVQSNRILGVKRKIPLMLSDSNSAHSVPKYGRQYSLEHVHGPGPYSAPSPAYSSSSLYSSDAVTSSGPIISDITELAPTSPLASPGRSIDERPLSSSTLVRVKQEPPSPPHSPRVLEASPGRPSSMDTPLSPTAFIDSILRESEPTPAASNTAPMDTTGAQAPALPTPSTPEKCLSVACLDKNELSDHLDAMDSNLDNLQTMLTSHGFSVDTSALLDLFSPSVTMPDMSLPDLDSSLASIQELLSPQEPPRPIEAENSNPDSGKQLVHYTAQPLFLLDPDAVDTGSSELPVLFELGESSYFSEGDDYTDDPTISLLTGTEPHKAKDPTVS

[4] = target: T1, Orexin/Hypocretin receptor type 1; assay: Fluorescence-based cell-based high throughput dose response assay for antagonists of the orexin 1 receptor (OX1R; HCRTR1). [Related pubchem assays (depositor defined):AID434989, AID435008, AID463079, AID485270, AID492963, AID492964, AID492965, AID493232, AID504717, AID504718]; format: functional
HEK293 [5] = assay: inhibition of NOD1-driven NF-kB reporter – cell-based, luminescence, uHTS, primary screen (AID 1578); format: functional; settings: Homo sapiens
HEK293 [6] = assay: cells; format: functional, cell-based; settings: Homo sapiens
HEK293 [7] = assay: cells; format: functional, cell-based; settings: Homo sapiens; remark: listed apart in the source
[8] = target: Nucleotide-binding oligomerization domain-containing protein 2 (Homo sapiens, UniProt Q9HC29); assay: inhibition of NOD2-driven NF-kB reporter – cell-based, luminescence, uHTS, HEK293 (AID 1566); format: functional
HEK293 [9] = assay: NOD2 signaling inhibitors in MDP-stimulated cells, cell-based, uHTS, luminescence (AID 2001); format: functional; settings: Homo sapiens
HEK293 [10] = assay: cells; format: functional, cell-based; settings: Homo sapiens; remark: listed apart in the source
[11] = target: Intestinal-type alkaline phosphatase (Homo sapiens, UniProt P09923); assay: Dose Response confirmation of uHTS hits from a small molecule inhibitors of human intestinal alkaline phosphatase via a luminescent assay. [Related pubchem assays (depositor defined):AID2544, AID2574]; format: functional
Cytochrome P450 2C9 = Cytochrome P450 2C9 (Homo sapiens, UniProt P11712)
Bcl-2-like protein 10 = target: T3, Bcl-2-like protein 10 (Homo sapiens, UniProt Q9HD36); assay: Bcl-B/TR3 peptide binding disruption – biochemical, fluorescence polarization, FITC-TR3 peptide, selectivity assay for Bfl-1 inhibitor project, primary screen (AID 748);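 also: fluorescence polarization from a fluorescein-labelled TR3 peptide binding purified Bcl-B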
T3 sequence (Q9HD36 whole entry): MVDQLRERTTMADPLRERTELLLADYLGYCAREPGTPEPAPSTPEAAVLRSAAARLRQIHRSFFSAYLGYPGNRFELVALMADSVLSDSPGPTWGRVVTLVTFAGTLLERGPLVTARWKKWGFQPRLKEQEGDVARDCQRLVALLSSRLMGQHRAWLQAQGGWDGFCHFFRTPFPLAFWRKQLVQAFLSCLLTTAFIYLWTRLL

[12] = target: T4, Apoptotic protease-activating factor 1 (Homo sapiens, UniProt O14727); format: functional
T4 sequence (O14727 whole entry): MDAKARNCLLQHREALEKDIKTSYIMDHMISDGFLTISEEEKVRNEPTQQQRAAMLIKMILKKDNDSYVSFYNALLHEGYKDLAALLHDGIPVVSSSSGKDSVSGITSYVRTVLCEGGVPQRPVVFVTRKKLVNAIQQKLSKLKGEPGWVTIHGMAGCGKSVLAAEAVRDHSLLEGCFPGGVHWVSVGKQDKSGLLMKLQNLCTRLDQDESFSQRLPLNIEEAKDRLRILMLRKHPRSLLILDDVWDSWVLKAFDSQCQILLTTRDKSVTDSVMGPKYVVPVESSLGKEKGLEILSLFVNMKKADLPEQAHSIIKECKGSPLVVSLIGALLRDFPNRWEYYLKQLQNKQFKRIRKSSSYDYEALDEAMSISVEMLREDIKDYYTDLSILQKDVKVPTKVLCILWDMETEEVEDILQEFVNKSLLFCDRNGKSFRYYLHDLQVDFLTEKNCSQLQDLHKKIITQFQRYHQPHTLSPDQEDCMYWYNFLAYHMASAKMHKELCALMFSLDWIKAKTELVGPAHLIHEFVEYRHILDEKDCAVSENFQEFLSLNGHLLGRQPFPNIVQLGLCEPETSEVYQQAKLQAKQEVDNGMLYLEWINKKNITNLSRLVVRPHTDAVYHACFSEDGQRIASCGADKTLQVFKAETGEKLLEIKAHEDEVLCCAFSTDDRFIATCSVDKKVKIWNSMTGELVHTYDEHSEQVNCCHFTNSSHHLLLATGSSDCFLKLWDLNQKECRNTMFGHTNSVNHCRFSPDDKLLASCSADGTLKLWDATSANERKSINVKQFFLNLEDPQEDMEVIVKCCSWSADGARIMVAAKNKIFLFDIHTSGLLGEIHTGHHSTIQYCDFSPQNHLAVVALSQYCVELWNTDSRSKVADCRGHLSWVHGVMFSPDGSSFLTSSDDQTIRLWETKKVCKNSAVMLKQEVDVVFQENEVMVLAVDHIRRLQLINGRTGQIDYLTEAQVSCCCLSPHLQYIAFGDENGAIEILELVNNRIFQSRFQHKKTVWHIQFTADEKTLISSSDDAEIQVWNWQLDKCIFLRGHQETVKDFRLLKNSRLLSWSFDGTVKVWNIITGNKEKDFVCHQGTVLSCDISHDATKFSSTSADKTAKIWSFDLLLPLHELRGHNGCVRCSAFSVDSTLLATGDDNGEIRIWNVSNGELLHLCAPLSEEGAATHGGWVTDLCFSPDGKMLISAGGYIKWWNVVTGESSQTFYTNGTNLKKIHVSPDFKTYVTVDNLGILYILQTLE

[13] = test system: Streptococcus sp. 'group A'; assay: Streptococcus pyogenes SK(-)GAS viability under kanamycin – luminescence, BacTiterGlo, confirmation, counter-screen for streptokinase expression inhibitor project, dose response (AID 1900); format: functional, organism-based
Streptokinase A = target: T5, Streptokinase A (Streptococcus pyogenes serotype M1, UniProt P10520); assay: viability-normalized secreted streptokinase activity reduction – plasminogen activation absorbance, OD405, dose response (AID 1914); format: functional, Streptococcus pyogenes M1 GAS;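 also: secreted streptokinase activity via plasminogen activation per viability signal from cell pellet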
T5 sequence (P10520 whole entry): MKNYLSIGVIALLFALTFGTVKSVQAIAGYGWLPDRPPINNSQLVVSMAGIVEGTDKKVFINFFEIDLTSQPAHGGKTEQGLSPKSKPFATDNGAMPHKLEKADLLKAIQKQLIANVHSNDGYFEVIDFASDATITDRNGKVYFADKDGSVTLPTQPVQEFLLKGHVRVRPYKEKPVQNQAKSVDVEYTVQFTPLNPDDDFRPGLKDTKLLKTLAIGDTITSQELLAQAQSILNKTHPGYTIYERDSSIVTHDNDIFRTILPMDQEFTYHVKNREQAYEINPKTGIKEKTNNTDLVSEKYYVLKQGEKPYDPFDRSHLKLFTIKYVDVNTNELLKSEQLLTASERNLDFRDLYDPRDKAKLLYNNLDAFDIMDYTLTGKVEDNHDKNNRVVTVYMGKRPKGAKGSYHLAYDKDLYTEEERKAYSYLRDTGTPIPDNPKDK

[14] = Trypanosoma cruzi growth suppression in host cells – NIH3T3 host cells, beta-gal luminescence, confirmation (AID 2044); format: functional, cell-based;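 also: intracellular parasites grown in NIH/3T3 mouse fibroblasts as host cells; luminescent beta-galactosidase reporter signal from transgenic T. cruzi replicating inside host cells; inhibitors lower the luminescence signal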
[15] = NIH3T3 cell viability loss – ATP luminescence, mouse fibroblasts, counter-screen, dose response (AID 2010); format: functional, cell-based;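 also: cells exposed to compound for about 90 hours before reading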
Streptococcus = assay: GAS UMAA2166 growth inhibition – luminescence, BacTiterGlo, counter-screen for streptokinase expression inhibitor project, dose response (AID 1915); format: functional, organism-based;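 also: potency for reduction of bacterial viability or growth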
Vero = assay: cells; format: functional; settings: Chlorocebus sabaeus
[16] = A549 cell cytotoxicity, dose response, cytotoxicity control, plate reader, cherry-pick, antagonist series (AID 743412); format: functional, cell-based
[17] = toxicity toward HepG2 liver cells – cell-based, plate reader, cherry-pick, antagonist series, cytotoxicity control, dose response (AID 743416); format: functional
[18] = blockers of bursicon-stimulated LGR2 cAMP reporter – cell-based, HEK293, CRE-luciferase reporter, cherry pick, set 2, dose response (AID 743343); format: functional;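 also: transfected cells were stimulated with diluted bursicon conditioned medium after compound addition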
[19] = blockade of melanocortin 4 receptor signaling – cell-based, plate reader, cherry pick, counter-screen for LGR2 antagonist project, dose response (AID 743444); format: functional;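 also: transfected HEK 293 cells stimulated with alpha-MSH peptide; potency of inhibitors of the alpha-MSH evoked signal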
[20] = viability loss in HEK293 cells – cell-based, plate reader, cherry-picked samples, cytotoxicity control, dose response (AID 743446); format: functional

Intestinal-type alkaline phosphatase, sequence (P09923 whole entry): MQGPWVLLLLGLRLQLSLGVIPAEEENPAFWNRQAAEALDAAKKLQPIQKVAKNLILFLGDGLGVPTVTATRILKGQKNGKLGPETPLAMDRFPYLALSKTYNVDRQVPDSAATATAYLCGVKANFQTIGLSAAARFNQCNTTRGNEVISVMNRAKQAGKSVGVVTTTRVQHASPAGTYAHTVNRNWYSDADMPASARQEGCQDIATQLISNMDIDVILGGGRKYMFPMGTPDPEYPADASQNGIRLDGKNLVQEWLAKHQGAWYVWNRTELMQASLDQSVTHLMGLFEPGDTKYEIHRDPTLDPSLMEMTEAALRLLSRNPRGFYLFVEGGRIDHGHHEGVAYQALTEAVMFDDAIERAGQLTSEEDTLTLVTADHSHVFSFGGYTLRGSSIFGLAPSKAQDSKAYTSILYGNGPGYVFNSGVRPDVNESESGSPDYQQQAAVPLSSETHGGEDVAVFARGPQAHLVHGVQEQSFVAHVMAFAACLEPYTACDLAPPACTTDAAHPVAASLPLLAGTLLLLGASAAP
Nucleotide-binding oligomerization domain-containing protein 2, sequence (Q9HC29 whole entry, the tested form may be a part): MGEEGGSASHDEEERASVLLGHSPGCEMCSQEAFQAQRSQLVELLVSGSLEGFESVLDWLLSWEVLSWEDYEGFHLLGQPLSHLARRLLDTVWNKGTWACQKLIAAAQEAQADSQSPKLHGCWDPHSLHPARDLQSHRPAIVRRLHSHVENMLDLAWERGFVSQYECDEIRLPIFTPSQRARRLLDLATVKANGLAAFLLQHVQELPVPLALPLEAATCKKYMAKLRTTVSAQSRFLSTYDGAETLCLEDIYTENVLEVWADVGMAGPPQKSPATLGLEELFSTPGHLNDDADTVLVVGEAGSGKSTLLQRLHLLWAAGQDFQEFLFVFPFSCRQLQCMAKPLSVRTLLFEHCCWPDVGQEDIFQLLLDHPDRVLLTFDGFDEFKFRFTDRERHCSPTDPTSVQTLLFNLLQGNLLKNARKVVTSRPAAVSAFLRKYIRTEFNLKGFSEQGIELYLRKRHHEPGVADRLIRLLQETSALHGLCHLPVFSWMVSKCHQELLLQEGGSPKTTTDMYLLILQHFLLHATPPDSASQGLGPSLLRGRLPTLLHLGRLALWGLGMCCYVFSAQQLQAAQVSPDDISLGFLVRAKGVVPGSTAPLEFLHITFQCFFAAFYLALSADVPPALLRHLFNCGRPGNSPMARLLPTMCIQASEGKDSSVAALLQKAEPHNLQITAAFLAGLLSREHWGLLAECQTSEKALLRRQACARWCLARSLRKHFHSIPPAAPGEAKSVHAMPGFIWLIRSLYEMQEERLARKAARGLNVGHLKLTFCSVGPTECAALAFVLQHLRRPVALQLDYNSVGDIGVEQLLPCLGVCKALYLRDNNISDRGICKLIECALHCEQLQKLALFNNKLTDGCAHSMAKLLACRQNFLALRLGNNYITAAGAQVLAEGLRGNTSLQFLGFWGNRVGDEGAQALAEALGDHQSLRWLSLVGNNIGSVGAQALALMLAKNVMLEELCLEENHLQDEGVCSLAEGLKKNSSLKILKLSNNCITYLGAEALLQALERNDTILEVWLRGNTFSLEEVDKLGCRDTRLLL
Cytochrome P450 2C9, sequence (P11712 whole entry): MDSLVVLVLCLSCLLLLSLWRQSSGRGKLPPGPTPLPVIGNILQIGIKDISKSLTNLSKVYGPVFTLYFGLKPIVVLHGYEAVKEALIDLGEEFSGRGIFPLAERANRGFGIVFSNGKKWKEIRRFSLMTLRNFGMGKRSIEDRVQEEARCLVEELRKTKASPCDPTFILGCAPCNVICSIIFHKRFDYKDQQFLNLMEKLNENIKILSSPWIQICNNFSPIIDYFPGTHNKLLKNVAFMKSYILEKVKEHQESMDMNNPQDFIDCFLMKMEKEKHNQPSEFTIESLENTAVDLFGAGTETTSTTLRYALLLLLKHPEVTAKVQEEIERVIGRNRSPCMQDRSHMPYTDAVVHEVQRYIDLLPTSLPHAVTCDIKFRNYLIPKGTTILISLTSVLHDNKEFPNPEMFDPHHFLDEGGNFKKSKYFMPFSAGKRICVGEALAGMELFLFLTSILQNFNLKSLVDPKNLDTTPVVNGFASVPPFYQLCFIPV

Structure (SMILES): OC(CN1c2ccccc2Sc2ccccc21)Cn1nnc2ccccc21 (stereo not drawn)
- IC50 (CHO-K1): > 66.2 µM (inactive)
- IC50 [1]: 21.3 µM (inactive)
- IC50 [2]: 13.3 µM (inactive)
- EC50 [3]: > 260 µM (inactive)
- IC50 [4]: 16.4 µM (inactive)

Structure (SMILES): COc1ccc(C)cc1NC(=O)CSc1ccc(-c2ccco2)nn1
- EC50 (HEK293 [5]): > 20 µM (inactive)
- IC50 (HEK293 [6]): > 20 µM (inactive)
- IC50 (HEK293 [7]): > 20 µM (inactive)
- EC50 [8]: > 20 µM (inactive)
- IC50 (HEK293 [9]): 9.49 µM (inactive)
- IC50 (HEK293 [10]): > 20 µM (inactive)

Structure (SMILES): CCOC(=O)c1c(NC(=O)Cn2cc([N+](=O)[O-])cn2)sc2c1CCC2
- IC50 [11]: > 100 µM (inactive)
- AC50 (Cytochrome P450 2C9): 3.55 µM (inconclusive)

Structure (SMILES): c1cc2c3c(cccc3c1)NC1(CCCCCC1)N2
- IC50 (Bcl-2-like protein 10): 78.4 µM (inactive)
- IC50 [12]: 6.58 µM (active)

Structure (SMILES): CCn1cnc2sc(C(=O)O)c(C)c2c1=O
- IC50 [11]: > 100 µM (inactive)

Structure (SMILES): CC(=O)c1c(C)[nH]c(C(=O)Nc2nc(-c3ccc(-c4ccccc4)cc3)cs2)c1C
- EC50 (HEK293 [5]): 3.76 µM (active)
- EC50 [13]: 4.48 µM (active)
- IC50 (HEK293 [6]): 4.41 µM (active)
- EC50 (Streptokinase A): > 150 µM (not active)
- IC50 (HEK293 [7]): 11.2 µM (active)
- EC50 [8]: 14.1 µM (active)
- IC50 (HEK293 [9]): 4.86 µM (inactive)
- EC50 [14]: 0.876 µM (active)
- IC50 (HEK293 [10]): 18.2 µM (active)
- EC50 [15]: > 60 µM (not active)
- EC50 (Streptococcus): 16.7 µM (active)
- CC50 (Vero): 21.1 µM (active)
- AC50 [16]: 17.6 µM (active)
- AC50 [17]: 23.5 µM (active)
- AC50 [18]: 40.2 µM (active)
- AC50 [19]: 20 µM (active)
- AC50 [20]: 17.9 µM (active)
